Test: Super-saturation studies: in-vitro dissolution in different media (SGF, FaSSIF, FeSSIF, buffer pH 7)
Format: physicochemical
Conditions: ~4 mg/ml = 100% release
From the text: The in-vitro dissolution of the HPMC-based solid dispersion 1B (Component 1B) and that of the enteric HPMC-P based solid dispersion 2D (Component 2D) were studied in different media and compared to the crystalline-hemihydrate or the amorphous compound A.

Row | Structure (SMILES) | Concentration of Compound A (FaSSIF, 10 min) [µg/mL] | Concentration of Compound A (FaSSIF, 30 min) [µg/mL] | Concentration of Compound A (FaSSIF, 60 min) [µg/mL] | Concentration of Compound A (FaSSIF, 180 min) [µg/mL] | Concentration of Compound A (FeSSIF, 10 min) [µg/mL] | Concentration of Compound A (FeSSIF, 30 min) [µg/mL] | Concentration of Compound A (FeSSIF, 60 min) [µg/mL] | Concentration of Compound A (FeSSIF, 180 min) [µg/mL] | Concentration of Compound A (SGF, 10 min) [µg/mL] | Concentration of Compound A (SGF, 30 min) [µg/mL] | Concentration of Compound A (SGF, 60 min) [µg/mL] | Concentration of Compound A (SGF, 180 min) [µg/mL]
1 | CN(C(=O)c1cc(C(F)(F)F)cc(C(F)(F)F)c1)[C@@H](/C=C/C(=O)N[C@@H]1CCCCNC1=O)Cc1ccc(Cl)c(Cl)c1 [A-amorphous, (4R)-4-[N′-methyl-N′-(3,5-bistrifluoromethyl-benzoyl)-amino]-4-(3,4-dichlorobenzyl)-but-2-enoic acid N—[(R)-epsilon-caprolactam-3-yl]-amide] | 102 | 63 | 9 | 0 | 531 | 575 | 48 | 49 | 491 | 0 | 0 | 0
2 | CN(C(=O)c1cc(C(F)(F)F)cc(C(F)(F)F)c1)[C@@H](/C=C/C(=O)N[C@@H]1CCCCNC1=O)Cc1ccc(Cl)c(Cl)c1 [Compd A crystalline (hemihydrate), (4R)-4-[N′-methyl-N′-(3,5-bistrifluoro-methyl-benzoyl)-amino]-4-(3,4-dichlorobenzyl)-but-2-enoic acid N—[(R)-epsilon-caprolactam-3-yl]-amide semihydrate] | 0 | 0 | 0 | 0 | 62 | 54 | 56 | 44 | 0 | 0 | 0 | 0

From patent US20100015225A1, “SOLID DISPERSION OF A NEUROKININ ANTAGONIST” (priority 2006, published 2010)
